System: MOLT-4
Test: Cytotoxicity against human MOLT4 cells
Type: functional, cell-based

SMILES	EC50 [nM]
CC(=O)OC[C@H]1O[C@@H](O[C@@H]2C[C@H]3C(C)(C)[C@H](OC(C)=O)CC[C@]3(C)[C@H]3CC[C@]45C[C@]4(CC[C@H]5[C@@H](C)C[C@@H](O)[C@H](O)C(C)(C)O)[C@@]32C)[C@H](O)[C@@H](O)[C@@H]1O [CUMINGIANOSIDE A]	< 6.25
COC(C)(C)[C@@H](O)[C@H](O)C[C@H](C)[C@@H]1CC[C@]23C[C@]12CC[C@@H]1[C@@]2(C)CC[C@@H](OC(C)=O)C(C)(C)[C@@H]2C[C@@H](O[C@@H]2O[C@H](COC(C)=O)[C@@H](O)[C@H](O)[C@H]2O)[C@]13C [CUMINGIANOSIDE C]	< 4.5
